# What was measured:
# RS4;11 cell line [1] = experiment: Cytochrome c and Smac release assay, RS4;11; format: cell-based; conditions: RS4;11, 100 nM, within 30 minutes
# Experimental: (§1) Four million of H146 or RS4;11 cells were treated with compounds at 37° C. in an atmosphere of 95% air and 5% CO2 for the indicated time points, washed with PBS and re-suspended in 100 μl of digitonin buffer (75 mM NaCl, 8 mM Na2HPO4, 1 mM NaH2PO4, 1 mM EDTA, 350 μg/ml digitonin, and 250 mM sucrose). Cytosolic fractions were separated from organelle membrane fraction by centrifugation at 13,000 rpm for 1 min. The cytosolic fractions were resolved on a 12% SDS-PAGE and probed using anti-cytochrome c antibody (BD Biosciences) and anti-Smac (Cell Signaling Technology, Danvers, Mass.) antibody.
# (§2) Potent and bona fide Bcl-2/Bcl-xL inhibitors are predicted to induce apoptosis in cancer cells by binding to cellular Bcl-2 and Bcl-xL proteins, antagonizing their anti-apoptotic function and triggering rapid release of Smac and cytochrome c from mitochondria. Furthermore, the release of Smac and cytochrome c should take place before apoptosis. Accordingly, compound 150 was tested for its ability to induce cytochrome c and Smac release in the RS4;11 and H146 cell lines.
# [2] = system: ML-2 acute myeloid leukemia (AML) cell line; experiment: Cell growth assay (WST-8), ML-2; format: cell-based; conditions: Table 3; read-out: Cell Growth Inhibition (IC50 ± SD) ML-2
# ML-2 cell line = experiment: Western blot of PARP and caspase-3 cleavage, ML-2; format: cell-based; conditions: as low as 100 nM, 8-hr treatment
# Experimental: (§3) Cells were lysed with lysis buffer (PBS containing 1% NP40, 0.5% Na-deoxycholate, and 0.1% SDS) supplemented with protease inhibitors (α-complete, Roche). The protein extracts were quantified using a calorimetric assay (Bradford Reagent) (BioRad, Hercules, Calif.). Proteins were electrophoresed onto 4-20% SDS-PAGE gels (Invitrogen) and transferred onto polyvinylidene difluoride membranes (Bio-Rad). Following blocking in 5% milk, membranes were incubated with a specific primary antibody, washed, and incubated with horseradish peroxidase-linked secondary antibody (Pierce). The signals were visualized with the chemiluminescent horseradish peroxidase antibody detection reagent (Denville Scientific).
# RS4;11 cell line [3] = experiment: Western blot of PARP and caspase-3 cleavage, RS4;11; format: cell-based; conditions: as low as 100 nM, 8-hr treatment
# Experimental: as §3
# RS4;11 cells = experiment: Cell growth assay (WST-8), RS4;11; format: cell-based; conditions: Homo sapiens, RS4-11, 96 h; Table 3, 4 days; read-out: Cell Growth Inhibition (IC50 ± SD) RS4; 11
# Experimental: (§4) RS4;11 and H146 cells were seeded in 96-well cell culture plates at a density of 10,000 cells/well with serially diluted compounds and incubated at 37° C. in an atmosphere of 95% air and 5% CO2 for 4 days. Cell viability was determined using the WST-8 (2-(2-methoxy-4-nitrophenyl)-3-(4-nitrophenyl)-5-(2,4-disulfophenyl)-2H-tetrazolium, monosodium salt) based Cell Counting-8 Kit (Dojindo Molecular Technologies, Inc., Rockville, Md.) according to the manufacture's instruction. Briefly, WST-8 was added to each well at a final concentration of 10% (v/v), and then the plates were incubated at 37° C. for 1˜2 hours for color development. The absorbance was measured at 450 nm using a SPECTRAmax PLUS plate reader (Molecular Devices, Sunnyvale, Calif.). The half maximal inhibitory concentration (IC50) was calculated using the GraphPad Prism 5 software (GraphPad Software, La Jolla, Calif.).
# ML-2 AML cell line = experiment: Apoptosis assay (Annexin-V/PI flow cytometry), ML-2; format: cell-based; conditions: 300 nM, 24 hr
# Experimental: (§5) Apoptosis assay was performed using the Annexin-V-FLUOS Staining kit (Roche Diagnostics, Indianapolis, Ind.) according to the manufacturer's instruction. Briefly, cells were treated with compounds for the indicated time points, harvested and washed with PBS. Cells were stained with Annexin V-FITC and Propidium iodide for 15 minutes at room temperature in the dark before analyzed with a BD Biosciences FACSCaliburs (Becton Dickinson).
# cellular Bcl-2/Bcl-xL = experiment: Competitive pull-down against Biotin-150 in ML-2 and H146 cell lysates; format: binding; conditions: competitive experiment
# Bcl-2 = Bcl-2 (Homo sapiens, UniProt P10415); experiment: FP-based binding assay, Bcl-2
# [4] = Toxicity (maximum tolerated dose) in SCID mice; format: in vivo; conditions: for Weight loss at higher dose: SCID mice; for Weight loss or other signs of toxicity: female SCID mice, intravenously, daily, 5-times a week for 2 weeks
# Excerpt: These experiments established the maximum tolerated doses (MTD).
# RS4;11 cell line [5] = experiment: Apoptosis assay (Annexin-V/PI flow cytometry), RS4;11; format: cell-based; conditions: for RS4;11 cells undergoing apoptosis: within 4 hrs; for RS4;11 cells undergoing apoptosis / Apoptosis induction in RS4;11: Annexin-V/PI; for Apoptosis induction in RS4;11: time- and dose-dependent
# Experimental: as §5
# H146 cell line [6] = experiment: Western blot of PARP and caspase-3 cleavage, H146; format: cell-based; conditions: as low as 100 nM, 8-hr treatment
# Experimental: as §3
# Bcl-xL = Bcl-xL (Homo sapiens, UniProt Q07817); experiment: FP-based binding assay, Bcl-xL; conditions: Table 2, FP-based assay
# H146 cells = experiment: Cell growth assay (WST-8), H146; format: cell-based; conditions: Homo sapiens, NCI-H146, 96 h; Table 3, 4 days; read-out: Cell Growth Inhibition (IC50 ± SD) H146
# Experimental: as §4
# [7] = system: H146 small-cell lung cancer cell line; experiment: Cell death assay (trypan blue), H146; format: cell-based; conditions: for H146 cells undergoing cell death: 24-hr treatment, trypan blue; for Cell death induction in H146: trypan blue assay
# Experimental: Cell death assay was performed using a Trypan blue exclusion test of cell viability. One million cells were seeded in 6-well plates and incubated at 37° C. in an atmosphere of 95% air and 5% CO2 with or without compounds for the indicated time points. At the end of treatment, cells were collected and centrifuged at 1000 rpm for 5 minutes. The cell pellets were re-suspended in PBS and mixed with 0.4% Trypan blue (Invitrogen) at 1:1 dilution to determine cell viability using Olympus CKX41 microscope (Olympus, Center Valley, Pa.).
# H146 cell line [8] = experiment: Cytochrome c and Smac release assay, H146; format: cell-based; conditions: H146, 300 nM, within 2 hr
# Experimental: as §1, §2
# H146 xenograft tumors [9] = experiment: Apoptosis induction in H146 xenograft tumors; format: in vivo, SCID mice
# Experimental: (§6) Compounds 150, 133, and 169 were tested for their toxicity in severe combined immunodeficiency (SCID) mice. SCID mice bearing xenograft tumors were treated with vehicle control, or a single dose of a compound, and tumors were removed at different time-points for western blot analysis of cleavage of PARP (CL-PARP) and caspase-3 (CL Cas-3). The ability of compounds 150 and 169 to induce apoptosis at their MTD in RS4;11 or H146 xenograft tumors in SCID mice was tested. In these experiments, RS4;11 or H146 tumors were allowed to grow to 200-300 mm^3 in female SCID mice. A single dose of the compound was administered to the animals and tumor tissues were analyzed for cleavage of PARP and caspase-3.
# H146 xenograft tumors [10] = experiment: Antitumor activity in the H146 xenograft tumor model; format: in vivo
# Experimental: The antitumor activity of compound 169 in the H146 xenograft tumor model also was tested. […] At the end of the treatment (day 39), compound 169 inhibited the tumor growth by 100% (p<0.0001, t-test).
# RS4;11 xenograft tumors = experiment: Apoptosis induction in RS4;11 xenograft tumors; format: in vivo, SCID mice; conditions: RS4;11 model, single dose
# Experimental: as §6
# Sequence of Bcl-2 (P10415 whole entry): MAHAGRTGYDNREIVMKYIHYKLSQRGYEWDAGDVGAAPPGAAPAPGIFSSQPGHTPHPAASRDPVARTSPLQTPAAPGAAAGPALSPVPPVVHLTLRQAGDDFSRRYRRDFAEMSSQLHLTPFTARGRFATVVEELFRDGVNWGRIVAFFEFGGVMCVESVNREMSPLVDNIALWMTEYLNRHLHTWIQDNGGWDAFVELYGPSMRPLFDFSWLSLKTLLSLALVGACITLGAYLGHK
# Sequence of Bcl-xL (Q07817 whole entry): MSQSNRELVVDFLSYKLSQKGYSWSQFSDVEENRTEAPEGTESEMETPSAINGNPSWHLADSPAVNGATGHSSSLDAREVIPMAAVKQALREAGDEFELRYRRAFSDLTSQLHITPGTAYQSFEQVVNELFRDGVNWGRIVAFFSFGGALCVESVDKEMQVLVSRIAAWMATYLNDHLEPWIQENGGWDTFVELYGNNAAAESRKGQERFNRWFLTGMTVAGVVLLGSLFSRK
smiles,measurement,setting,value
Cc1c(C(=O)NCCCN2CCN(C)CC2)c(-c2cccc(N3CCN(c4ccc(NS(=O)(=O)c5ccc(N[C@H](CCN(C)C)CSc6ccccc6)c([N+](=O)[O-])c5)cc4)CC3)c2)c(-c2ccc(Cl)cc2)n1C [Compound 150],Release of cytochrome c and Smac from mitochondria,RS4;11 cell line [1],robust release of cytochrome c and Smac
same,IC50,[2],185 ± 84 nM
same,Cleavage of PARP and caspase-3,ML-2 cell line,highly effective in induction of cleavage of PARP and caspase-3
same,Cleavage of PARP and caspase-3,RS4;11 cell line [3],highly effective in induction of cleavage of PARP and caspase-3
same,IC50,RS4;11 cells,38 ± 24 nM
same,ML-2 cells undergoing apoptosis,ML-2 AML cell line,about 50%
same,Blocking of interaction of cellular Bcl-2/Bcl-xL with Biotin-150,cellular Bcl-2/Bcl-xL,blocked the interaction of cellular Bcl-2/Bcl-xL and Biotin-150 in a dose-dependent manner
same,Ki,Bcl-2,< 1 nM
same,IC50,"Bcl-2; read-out: Bcl-2 IC50 ± SD, Table 2, FP-based assay",2 ± 0.6 nM
same,Weight loss at higher dose,[4]; 50 mg/kg,caused weight loss
same,Weight loss or other signs of toxicity,[4]; 25 mg/kg,no or minimal weight loss or other signs of toxicity
same,RS4;11 tumor cells undergoing apoptosis,"RS4;11 cell line [5]; 100 nM, 16 hr time-point",> 50%
same,RS4;11 cells undergoing apoptosis,RS4;11 cell line [5]; 100 nM,30%
same,RS4;11 cells undergoing apoptosis,RS4;11 cell line [5]; 300 nM,60%
same,Apoptosis induction in RS4;11,RS4;11 cell line [5],highly effective in induction of apoptosis
same,Cleavage of PARP and caspase-3,H146 cell line [6],highly effective in induction of cleavage of PARP and caspase-3
same,IC50,Bcl-xL; read-out: Bcl-xL IC50 ± SD,9 ± 2 nM
same,Ki,"Bcl-xL; read-out: Bcl-xL Ki ± SD, no unit printed in this row",2.4 ± 0.5 nM
same,IC50,H146 cells,102 ± 44 nM
same,H146 cells undergoing cell death,[7]; 30 nM,40%
same,H146 cells undergoing cell death,[7]; 100 nM,> 70%
same,Cell death induction in H146,[7],effectively induced cell death
same,Release of cytochrome c and Smac from mitochondria,H146 cell line [8],strong release of cytochrome c and Smac
"Cc1c(C(=O)O)c(-c2cccc(N3CCN(c4ccc(NS(=O)(=O)c5ccc(N[C@H](CCN6CCC(O)CC6)CSc6ccccc6)c(S(=O)(=O)C(F)(F)F)c5)cc4)CC3)c2)c(-c2ccc(Cl)cc2)n1C.Cl [Compound 169, (R)-5-(4-chlorophenyl)-4-(3-(4-(4-(4-((4-(4-hydroxypiperidin-1-yl)-1-(phenylthio)butan-2-yl)amino)-3-((trifluoromethyl)sulfonyl)phenylsulfonamido)phenyl)piperazin-1-yl)phenyl)-1,2-dimethyl-1H-pyrrole-3-carboxylic acid]",Cleavage of PARP and caspase-3 in xenograft tumor tissues,"H146 xenograft tumors [9]; H146, single-dose 50 mg/kg IV, 3 hr and 6 hr-time points",induced cleavage of PARP and caspase-3
same,Cleavage of PARP and caspase-3 in tumor tissues,"H146 xenograft tumors [9]; H146 model, single dose",strong effect in induction of cleavage of PARP and caspase-3
same,Tumor growth inhibition versus vehicle-treated tumors,"H146 xenograft tumors [10]; day 53, 2 weeks after the treatment was stopped, p=0.0001",79%
same,Other signs of toxicity,H146 xenograft tumors [10]; during the entire experiment,no other signs of toxicity
same,Weight loss,H146 xenograft tumors [10]; during the entire experiment,< 3%
same,Tumor growth inhibition,"H146 xenograft tumors [10]; end of the treatment (day 39), p<0.0001",100%
same,Weight loss at higher dose,[4]; 75 mg/kg,caused weight loss
same,Weight loss or other signs of toxicity,[4],no or minimal weight loss or other signs of toxicity
same,Cleavage of PARP and caspase-3 in tumor tissues,RS4;11 xenograft tumors,strong effect in induction of cleavage of PARP and caspase-3
"CN(C)CC[C@H](CSc1ccccc1)Nc1ccc(S(=O)(=O)NC(=O)c2ccc(N3CCN(Cc4ccccc4-c4ccc(Cl)cc4)CC3)cc2)cc1[N+](=O)[O-] [ABT-737, reference compound]",IC50,[2],16 ± 2 nM
same,Cleavage of PARP and caspase-3,ML-2 cell line,highly effective in induction of cleavage of PARP and caspase-3
same,Cleavage of PARP and caspase-3,RS4;11 cell line [3],highly effective in induction of cleavage of PARP and caspase-3
same,IC50,RS4;11 cells,12 ± 6 nM
same,ML-2 cells undergoing apoptosis,ML-2 AML cell line,about 50%
same,Blocking of interaction of cellular Bcl-2/Bcl-xL with Biotin-150,cellular Bcl-2/Bcl-xL,blocked the interaction of cellular Bcl-2/Bcl-xL and Biotin-150 in a dose-dependent manner
same,Apoptosis induction in RS4;11,RS4;11 cell line [5],highly effective in induction of apoptosis
same,Cleavage of PARP and caspase-3,H146 cell line [6],highly effective in induction of cleavage of PARP and caspase-3
same,IC50,H146 cells,62 ± 39 nM
same,Cell death induction in H146,[7],effectively induced cell death

# From patent US8691184B2, “Bcl-2/Bcl-xL inhibitors and therapeutic methods using the same” (The Regents of the University of Michigan, priority 2011, dated 2014)
